Results: patent US20240109865A1, “INDAZOLE COMPOUNDS AS KINASE INHIBITORS” (TYRA BIOSCIENCES, INC., priority 2020, published 2024)
Read-outs that look alike come from different tables or passages of the source.

Assays:
[1] = target: FGFR3-BAIAP2L1 Ba/F3 cells (Homo sapiens, UniProt P22607); assay: Ba/F3 cell viability assay (CellTiter-Glo 2.0), FGFR3-BAIAP2L1 Ba/F3; type: cell-based
Outline: (§1)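 IL3-independent Ba/F3 lines driven by FGFR1-BCR or FGFR3-BAIAP2L1 fusions, in RPMI1640/10% FBS. 9-dose 10-fold series from 30 μM, triplicate, 48 h at 37 °C; viability by CellTiter-Glo 2.0 ATP luminescence relative to DMSO control, IC50 from 4-parameter sigmoidal fit.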

[2] = target: FGFR1-BCR Ba/F3 cells (Homo sapiens, UniProt P11362); assay: Ba/F3 cell viability assay (CellTiter-Glo 2.0), FGFR1-BCR Ba/F3; type: cell-based
Outline: as §1

[3] = system: RT112/84 cells (FGFR3-fusion); assay: RT112/84 cancer cell line cell viability assay (CellTiter-Glo 2.0); type: cell-based; details: Homo sapiens, 72 hours, Cell Titer Glo 2.0
Outline: (§2)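 RT112/84, UM-UC-14 and KG-1 cells (10,000/well, RPMI1640 with 10% FBS) were treated with a 9-dose, 10-fold series starting at 30 μM, in triplicate, for 72 h at 37 °C. ATP was read by CellTiter-Glo 2.0 luminescence relative to DMSO controls, and IC50 was fitted with a 4-parameter sigmoidal model.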

[4] = system: UM-UC-14 cells (FGFR3(S249C)); assay: UM-UC-14 cancer cell line cell viability assay (CellTiter-Glo 2.0); type: cell-based; details: UMUC14, 72 hours, Cell Titer Glo 2.0
Source text: Experimental Purpose: To detect the change of intracellular ATP by Cell Titer-Glo® and to evaluate the inhibitory effect of the compounds on cancer cell lines by determining the in vitro IC50 value of the compounds.
Cell Titer-Glo® 2.0 Luminescent cell viability assay reagent was purchased from Promega (Madison, WI). RT112/84 and KG-1 cell lines were purchased from American Type Culture Collection (Manassas, VA). UM-UC-14 cell line was purchased from Sigma (St. Louis, MO). RT112/84, UM-UC-14, and KG-1 cells were cultured in RPMI1640 media supplemented with 10% fetal bovine serum. Cultures were maintained at 37° C. in a humidified atmosphere of 5% C02 and 95% air.
Cell Viability Assay Procedure: Cells were plated in 96-well clear bottom/white plates (Corning #3903) at 10,000 cells/well in 100 μl of media, incubated overnight. The next day, test compound DMSO stock solutions were made at 10 mM and 2 μM final concentration. Compounds were then added to cells in a 9-dose, 10-fold dilution series starting at 30 μM with an HP 300e Digital Dispenser (each dose was applied in triplicate). DMSO was backfilled to each well up to 301 nL total volume of test compound+DMSO, and a total of 301 nL DMSO was added to a control/no test compound well in triplicate. The cells in cell culture plates were incubated with the compounds at 37° C. and 5% C02 for 72 hours. Then 50 μl of Cell Titer Glo 2.0 reagent was added to each well of the cell culture plates. The contents were covered from light and mixed on an orbital shaker at room temperature for 10 min. Luminescence was recorded by a Synergy H1 Microplate Reader (Biotek, Winooski, VT). Cells were assessed as a percentage of DMSO only treated control cells. Curves were plotted and IC50 values were calculated using the GraphPad Prism 8 program based on a sigmoidal dose-response equation (4 parameter).

[5] = system: KG-1 cells (FGFR1-fusion); assay: KG-1 cancer cell line cell viability assay (CellTiter-Glo 2.0); type: cell-based; details: Homo sapiens, 72 hours, Cell Titer Glo 2.0
Outline: as §2

[6] = target: FGFR1 (Homo sapiens (Human), UniProt P11362); assay: Kinase assay, binding constants (Kd), kinase-tagged T7 phage, qPCR
Outline: (§3)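 Competition binding: kinase-tagged T7 phage lysates mixed with immobilized biotinylated ligand on streptavidin beads plus compound (11-point 3-fold dilution series, 0.9% DMSO final). Bound kinase eluted with free ligand and quantified by qPCR. Kd from Hill equation fit, slope fixed at −1.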

[7] = target: FGFR2 (Homo sapiens (Human), UniProt P21802); assay: as above
Outline: as §3

[8] = target: FGFR3 (Homo sapiens (Human), UniProt P22607); assay: as above
Outline: as §3

[9] = target: FGFR3 (V555M) (Homo sapiens (Human), UniProt P22607, V555M); assay: as above; details: V555M mutant
Outline: as §3

[10] = target: FGFR4 (Homo sapiens (Human), UniProt P22455); assay: as above
Outline: as §3

[11] = FGFR3 > FGFR1 selectivity ratio in Ba/F3 FGFR fusion cell based assays
[12] = read-out: Ba/F3 Cells FGFR3 (IC50 nM); FGFR3-BAIAP2L1 Ba/F3 cells, 48 hours, Cell Titer Glo 2.0
[13] = read-out: Ba/F3 Cells FGFR1 (IC50 nM), 48 hours, Cell Titer Glo 2.0

Chain of FGFR2 (P21802 22-821): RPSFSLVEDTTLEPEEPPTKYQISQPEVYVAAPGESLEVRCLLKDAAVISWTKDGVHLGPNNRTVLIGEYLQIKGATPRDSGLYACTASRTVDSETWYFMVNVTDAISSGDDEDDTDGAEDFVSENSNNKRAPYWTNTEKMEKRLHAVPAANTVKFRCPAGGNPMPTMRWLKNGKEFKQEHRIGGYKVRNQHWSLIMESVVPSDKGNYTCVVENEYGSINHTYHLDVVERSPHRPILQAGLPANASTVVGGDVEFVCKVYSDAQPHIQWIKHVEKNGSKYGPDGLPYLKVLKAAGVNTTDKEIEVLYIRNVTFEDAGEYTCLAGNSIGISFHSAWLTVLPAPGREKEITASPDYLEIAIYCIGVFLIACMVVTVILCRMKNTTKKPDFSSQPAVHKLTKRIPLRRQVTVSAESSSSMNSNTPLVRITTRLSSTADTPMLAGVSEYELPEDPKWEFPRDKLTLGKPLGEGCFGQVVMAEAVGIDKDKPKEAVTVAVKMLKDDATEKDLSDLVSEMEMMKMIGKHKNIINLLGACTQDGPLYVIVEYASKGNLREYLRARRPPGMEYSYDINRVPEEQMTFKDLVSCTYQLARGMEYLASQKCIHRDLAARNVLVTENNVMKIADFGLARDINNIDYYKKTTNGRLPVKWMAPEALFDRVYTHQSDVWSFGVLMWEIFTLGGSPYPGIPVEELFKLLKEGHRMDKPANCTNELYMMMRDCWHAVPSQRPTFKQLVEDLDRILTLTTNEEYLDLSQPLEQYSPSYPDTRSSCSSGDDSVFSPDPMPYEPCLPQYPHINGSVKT
Chain of FGFR3 (P22607 23-806): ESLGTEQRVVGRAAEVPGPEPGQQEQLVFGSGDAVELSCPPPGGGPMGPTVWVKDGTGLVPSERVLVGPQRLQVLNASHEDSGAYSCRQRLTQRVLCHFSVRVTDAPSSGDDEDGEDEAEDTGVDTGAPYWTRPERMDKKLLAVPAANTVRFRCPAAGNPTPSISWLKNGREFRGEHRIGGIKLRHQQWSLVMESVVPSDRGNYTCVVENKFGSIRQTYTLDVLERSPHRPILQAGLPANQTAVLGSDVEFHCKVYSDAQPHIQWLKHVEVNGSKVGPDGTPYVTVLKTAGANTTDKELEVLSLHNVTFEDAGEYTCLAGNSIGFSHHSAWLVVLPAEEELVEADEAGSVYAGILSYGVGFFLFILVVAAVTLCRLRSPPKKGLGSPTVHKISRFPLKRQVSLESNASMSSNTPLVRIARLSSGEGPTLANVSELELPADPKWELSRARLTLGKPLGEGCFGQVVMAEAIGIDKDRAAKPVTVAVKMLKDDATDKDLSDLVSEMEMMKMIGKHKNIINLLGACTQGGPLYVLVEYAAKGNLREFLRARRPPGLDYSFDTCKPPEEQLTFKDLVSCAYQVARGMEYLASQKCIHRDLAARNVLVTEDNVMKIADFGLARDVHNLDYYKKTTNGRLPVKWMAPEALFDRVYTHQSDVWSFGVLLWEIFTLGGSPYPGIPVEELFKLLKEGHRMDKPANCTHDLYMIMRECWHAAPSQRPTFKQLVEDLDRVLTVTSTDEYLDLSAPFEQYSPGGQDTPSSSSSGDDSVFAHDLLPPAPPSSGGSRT
Chain of FGFR3-BAIAP2L1 Ba/F3 cells (P22607 23-806 limits assumed, change not shown): as the sequence (P22607 23-806) above
Chain of FGFR3 (V555M) (P22607 23-806 V555M): as the sequence (P22607 23-806) above, with V533M counted along it
Chain of FGFR1-BCR Ba/F3 cells (P11362 22-822 limits assumed, change not shown): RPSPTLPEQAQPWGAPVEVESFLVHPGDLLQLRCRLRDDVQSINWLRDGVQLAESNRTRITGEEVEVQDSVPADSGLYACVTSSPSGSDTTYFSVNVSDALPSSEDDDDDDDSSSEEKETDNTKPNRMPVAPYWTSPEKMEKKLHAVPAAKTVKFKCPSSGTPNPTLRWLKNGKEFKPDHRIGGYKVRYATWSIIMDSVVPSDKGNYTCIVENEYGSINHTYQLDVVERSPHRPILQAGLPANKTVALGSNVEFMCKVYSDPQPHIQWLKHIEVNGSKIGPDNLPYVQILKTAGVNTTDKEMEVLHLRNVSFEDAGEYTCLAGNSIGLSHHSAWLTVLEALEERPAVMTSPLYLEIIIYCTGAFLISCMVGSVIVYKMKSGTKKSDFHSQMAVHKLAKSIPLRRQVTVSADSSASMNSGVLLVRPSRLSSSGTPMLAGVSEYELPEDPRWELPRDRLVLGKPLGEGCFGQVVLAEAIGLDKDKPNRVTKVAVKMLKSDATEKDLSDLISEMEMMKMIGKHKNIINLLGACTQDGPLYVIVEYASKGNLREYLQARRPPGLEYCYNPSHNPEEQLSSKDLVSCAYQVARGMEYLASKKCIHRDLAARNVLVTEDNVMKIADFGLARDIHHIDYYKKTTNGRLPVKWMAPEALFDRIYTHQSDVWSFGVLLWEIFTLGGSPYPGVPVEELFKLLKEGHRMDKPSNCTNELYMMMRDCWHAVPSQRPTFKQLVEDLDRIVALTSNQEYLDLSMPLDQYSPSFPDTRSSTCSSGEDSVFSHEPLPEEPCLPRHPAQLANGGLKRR
Chain of FGFR1 (P11362 22-822): as the sequence (P11362 22-822 limits assumed, change not shown) above
Chain of FGFR4 (P22455 22-802): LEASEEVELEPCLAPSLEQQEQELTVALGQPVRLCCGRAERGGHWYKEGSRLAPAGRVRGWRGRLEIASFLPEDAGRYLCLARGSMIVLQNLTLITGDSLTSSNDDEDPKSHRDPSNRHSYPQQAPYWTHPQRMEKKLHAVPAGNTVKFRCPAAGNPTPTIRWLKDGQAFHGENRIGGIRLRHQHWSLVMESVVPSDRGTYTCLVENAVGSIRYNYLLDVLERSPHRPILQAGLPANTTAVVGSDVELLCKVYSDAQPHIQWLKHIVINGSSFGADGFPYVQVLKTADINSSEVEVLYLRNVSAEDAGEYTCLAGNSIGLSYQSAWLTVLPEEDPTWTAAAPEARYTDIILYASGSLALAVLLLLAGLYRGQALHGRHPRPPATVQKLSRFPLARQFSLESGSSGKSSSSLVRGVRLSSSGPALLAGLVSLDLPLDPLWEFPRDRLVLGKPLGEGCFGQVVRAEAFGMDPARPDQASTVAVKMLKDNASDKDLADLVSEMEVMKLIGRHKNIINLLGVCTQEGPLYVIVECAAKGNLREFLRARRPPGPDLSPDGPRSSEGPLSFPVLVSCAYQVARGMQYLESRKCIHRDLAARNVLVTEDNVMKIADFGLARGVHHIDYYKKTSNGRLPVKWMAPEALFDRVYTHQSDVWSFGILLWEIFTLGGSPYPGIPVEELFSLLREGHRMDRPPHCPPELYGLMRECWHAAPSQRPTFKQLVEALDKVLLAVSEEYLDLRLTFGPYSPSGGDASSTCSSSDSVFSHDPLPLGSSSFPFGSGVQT

Structure (SMILES)	Ba/F3 FGFR1/FGFR3 Selectivity [1, 11]	IC50 [1, 12]	IC50 [2, 13]	IC50 [3]	IC50 [4]	IC50 [5]	Kd [6]	Kd [7]	Kd [8]	Kd [9]	Kd [10]	IC50 ([1]; FGFR3-BAIAP2L1 Ba/F3 cells, 48 hours, Cell Titer Glo 2.0; read-out: Ba/F3 Cells FGFR3 (IC50 nM))	IC50 ([2]; 48 hours, Cell Titer Glo 2.0, read-out: Ba/F3 Cells FGFR1 (IC50 nM))
C[C@@H](Oc1ccc2[nH]nc(-c3cnc(N4CCN(C(=O)N(C)C)CC4)nc3)c2c1)c1c(Cl)cncc1Cl [Example 19, 4-[5-[5-[(1R)-1-(3,5-Dichloro-4-pyridyl)ethoxy]-1H-indazol-3-yl]pyrimidin-2-yl]-N,N-dimethyl-piperazine-1-carboxamide]	15	1 to 20 nM	100 to 300 nM	1 to 20 nM	1 to 20 nM	100 to 300 nM	1 to 20 nM	100 to 300 nM	1 to 20 nM	1 to 20 nM	1 to 20 nM		
C[C@@H](Oc1ccc2[nH]nc(-c3ccc(N4CC5CC(C4)N5S(C)(=O)=O)nc3)c2c1)c1c(Cl)cncc1Cl [Example 20, 5-[(1R)-1-(3,5-dichloro-4-pyridyl)ethoxy]-3-[6-(6-methylsulfonyl-3,6-diazabicyclo[3.1.1]heptan-3-yl)-3-pyridyl]-1H-indazole]	15			20 to 100 nM	20 to 100 nM	100 to 300 nM	20 to 100 nM	20 to 100 nM	1 to 20 nM	1 to 20 nM	1 to 20 nM	20 to 100 nM	> 300 nM
C[C@@H](Oc1ccc2[nH]nc(-c3ccc(N4CCNC5(CC5)C4)nc3)c2c1)c1c(Cl)cncc1Cl [Example 21, 3-[6-(4,7-diazaspiro[2.5]octan-7-yl)-3-pyridyl]-5-[(1R)-1-(3,5-dichloro-4-pyridyl)ethoxy]-1H-indazole]	13	1 to 20 nM	100 to 300 nM	1 to 20 nM	1 to 20 nM	20 to 100 nM	1 to 20 nM	1 to 20 nM	1 to 20 nM	1 to 20 nM	1 to 20 nM		
C[C@@H](Oc1ccc2[nH]nc(-c3ccc(N4CCN(S(C)(=O)=O)C5(CC5)C4)nc3)c2c1)c1c(Cl)cncc1Cl [Example 22, 5-[(1R)-1-(3,5-dichloro-4-pyridyl)ethoxy]-3-[6-(4-methylsulfonyl-4,7-diazaspiro[2.5]octan-7-yl)-3-pyridyl]-1H-indazole]	11	1 to 20 nM	100 to 300 nM	1 to 20 nM	1 to 20 nM	20 to 100 nM	20 to 100 nM	20 to 100 nM	1 to 20 nM	1 to 20 nM	1 to 20 nM		
C[C@@H](Oc1ccc2[nH]nc(-c3ccc(N4CCN(C(=O)N(C)C)C5(CC5)C4)nc3)c2c1)c1c(Cl)cncc1Cl [Example 23, (R)-7-(5-(5-(1-(3,5-dichloropyridin-4-yl)ethoxy)-1H-indazol-3-yl)pyridin-2-yl)-N,N-dimethyl-4,7-diazaspiro[2.5]octane-4-carboxamide]	16	1 to 20 nM	100 to 300 nM	1 to 20 nM	1 to 20 nM	100 to 300 nM	> 300 nM	> 300 nM	100 to 300 nM	20 to 100 nM	> 300 nM		
C[C@@H](Oc1ccc2[nH]nc(-c3ccc(N4CCN(C(N)=O)C5(CC5)C4)nc3)c2c1)c1c(Cl)cncc1Cl [Example 24, 7-[5-[5-[(1R)-1-(3,5-dichloro-4-pyridyl)ethoxy]-1H-indazol-3-yl]-2-pyridyl]-4,7-diazaspiro[2.5]octane-4-carboxamide]	18	1 to 20 nM	20 to 100 nM	1 to 20 nM	1 to 20 nM	20 to 100 nM	1 to 20 nM	1 to 20 nM	1 to 20 nM	1 to 20 nM	1 to 20 nM		
C[C@@H](Oc1ccc2[nH]nc(-c3ccc(N4CCC5(CCCO5)CC4)nc3)c2c1)c1c(Cl)cncc1Cl [Example 26, 8-[5-[5-[(1R)-1-(3,5-dichloro-4-pyridyl)ethoxy]-1H-indazol-3-yl]-2-pyridyl]-1-oxa-8-azaspiro[4.5]decane]	28	20 to 100 nM	> 300 nM	20 to 100 nM	20 to 100 nM	> 300 nM	20 to 100 nM	20 to 100 nM	1 to 20 nM	1 to 20 nM	1 to 20 nM		
C[C@@H](Oc1ccc2[nH]nc(-c3ccc(N4CCC5(CCNC5=O)CC4)nc3)c2c1)c1c(Cl)cncc1Cl [Example 27, 8-[5-[5-[(1R)-1-(3,5-dichloro-4-pyridyl)ethoxy]-1H-indazol-3-yl]-2-pyridyl]-2,8-diazaspiro[4.5]decan-1-one]	24	1 to 20 nM	100 to 300 nM	1 to 20 nM	1 to 20 nM	100 to 300 nM	20 to 100 nM	1 to 20 nM	1 to 20 nM	1 to 20 nM	1 to 20 nM		
C[C@@H](Oc1ccc2[nH]nc(-c3ccc(N4CCC5(CCOC5)CC4)nc3)c2c1)c1c(Cl)cncc1Cl [Example 28, 8-[5-[5-[(1R)-1-(3,5-dichloro-4-pyridyl)ethoxy]-1H-indazol-3-yl]-2-pyridyl]-2-oxa-8-azaspiro[4.5]decane]	22	1 to 20 nM	> 300 nM	1 to 20 nM	1 to 20 nM	100 to 300 nM	20 to 100 nM	20 to 100 nM	1 to 20 nM	1 to 20 nM	1 to 20 nM		
C[C@@H](Oc1ccc2[nH]nc(-c3ccc(N4CCC5(CCN(C)C5)CC4)nc3)c2c1)c1c(Cl)cncc1Cl [Example 32, 8-[5-[5-[(1R)-1-(3,5-dichloro-4-pyridyl)ethoxy]-1H-indazol-3-yl]-2-pyridyl]-2-methyl-2,8-diazaspiro[4.5]decane]	12	1 to 20 nM	100 to 300 nM	1 to 20 nM	1 to 20 nM	20 to 100 nM	1 to 20 nM	1 to 20 nM	1 to 20 nM	1 to 20 nM	1 to 20 nM		
C[C@@H](Oc1ccc2[nH]nc(-c3ccc(N4CCC5(CCCN5C)CC4)nc3)c2c1)c1c(Cl)cncc1Cl [Example 33, 8-[5-[5-[(1R)-1-(3,5-dichloro-4-pyridyl)ethoxy]-1H-indazol-3-yl]-2-pyridyl]-1-methyl-1,8-diazaspiro[4.5]decane]	16	1 to 20 nM	20 to 100 nM	1 to 20 nM	1 to 20 nM	20 to 100 nM	1 to 20 nM	1 to 20 nM	1 to 20 nM	1 to 20 nM	1 to 20 nM		
C[C@@H](Oc1ccc2[nH]nc(-c3ccc(N4CCC5(CC4)C(=O)NCCN5C)nc3)c2c1)c1c(Cl)cncc1Cl [Example 34, 9-[5-[5-[(1R)-1-(3,5-dichloro-4-pyridyl)ethoxy]-1H-indazol-3-yl]-2-pyridyl]-1-methyl-1,4,9-triazaspiro[5.5]undecan-5-one]	28	1 to 20 nM	20 to 100 nM	1 to 20 nM	1 to 20 nM	20 to 100 nM	1 to 20 nM	1 to 20 nM	1 to 20 nM	1 to 20 nM	1 to 20 nM		
